From patent US20120225019A1, “Dual Fluorescence Assay For Determining Viability Of Parasitic Or Non-Parasitic Worms” (priority 2009, published 2012)
Entries after “also recorded” stand apart in the source; their conditions may differ. Counter-ions that a name gives are not always drawn.

Columns and labels:
[1] = tested on: Schistosoma mansoni schistosomula; assay: microscopic examination of compound-treated schistosomula; format: cell-based; settings: 24 hr
Procedure: Live and heat killed schistosomula stained with optimal concentrations (empirically derived from Jones K, Senft J (1985) An improved method to determine cell viability by simultaneous staining with fluorescein diacetate-propidium iodide. The Journal of Histochemistry and Cytochemistry 33: 77-79) of propidium iodide (PI, 2.0 μg/ml; Sigma-Aldrich), fluorescein diacetate (FDA, 0.5 μg/ml; Sigma-Aldrich) or both fluorophores were visualized at ×100 magnification using a Leica Axioplan microscope equipped with FITC (494 excitation) and Rhodamine (536 excitation) filters and a mercury vapor light source. A Hamamatsu CA74295 camera with Wasabi Version 1.4 software was used to capture photographic images of stained schistosomula.
Schistosomula, co-incubated with test compounds, were fluorescently visualized as above or unstained at ×100 magnification using an Olympus CK2 inverted microscope equipped with a stage extension plate and specimen holder for handling microtiter plates. A Kodak EasyShare DX7440 digital camera was used to capture images of unstained schistosomula.

[2] = tested on: Schistosoma mansoni schistosomula; assay: dual-fluorescence (PI/FDA) schistosomula viability assay; format: cell-based; settings: 10 μM, 24 hr
Procedure: Schistosoma mansoni (Puerto Rican strain) infected Biomphalaria glabrata snails were provided by Fred Lewis (Biomedical Research Institute, Rockville, Md., USA). Cercariae were shed from infected snails by exposure to light (60 min at room temperature, RT) and subsequently converted to schistosomula by mechanical transformation (Colley D G, Wikel S K (1974) Schistosoma mansoni: simplified method for the production of schistosomules. Experimental Parasitology 35: 44-51). Schistosomula were purified away from cercarial tails by centrifugation through a 60% percoll gradient (Lazdins J K, Stein M J, David J R, Sher A (1982) Schistosoma mansoni: rapid isolation and purification of schistosomula of different developmental stages by centrifugation on discontinuous density gradients of Percoli. Experimental Parasitology 53: 39).
Microscope examination was used to assess the quantity and quality of purified schistosomula. Schistosomula were cultured at 37° C. in T25 tissue culture flasks containing 9 ml DMEM (Dulbecco's Modified Eagle Medium, Sigma-Aldrich), lacking phenol red but containing 4500 mg/I glucose, supplemented with 10% foetal calf serum, 2 mM L-glutamine, 200 U/ml penicillin, 200 μg/ml streptomycin (all Sigma-Aldrich) in an atmosphere of 5% CO2 for 24 hr before any further experimental manipulations proceeded. Negligible parasite death occurred in this media during the 24 hr culturing period. Following this, schistosomula were aliquoted into black-sided, flat-bottom (optically clear), 96-well microtiter plates (Fisher Scientific) in 200 μl media or black-sided, flat-bottom (optically clear), 384-well microtiter plates (Matrix) in 40 μl media.
Stock solutions of all compounds were made up at 1 mM in appropriate solvents and stored at −80° C. All compounds were added to black-sided, flat-bottom (optically clear), 96-well microtiter plates containing schistosomula (1000 parasites/well in triplicate) at 10 μM concentrations. Schistosomula were cultured (as already indicated; 37° C., 5% CO2) in the presence of each compound for 24 hr before viability levels were assessed.
After the 24 hr culturing period in the presence of test compounds, and prior to addition of fluorescent dyes, all schistosomula were washed three times to remove test compound and culture media supplements. Each wash consisted of centrifuging microtiter plates containing schistosomula at 100×g for 5 min, removal of half the old culture media and replacement with an equal quantity of fresh DMEM (lacking phenol red). After washing the parasites, […] and FDA were simultaneously added to each well of the microtiter plate to obtain a final concentration of 2.0 μg/ml and 0.5 μg/ml respectively.
The 96-well microtiter plates, now containing fluorescently labeled parasites, were subsequently loaded into a BMG Labtech Polarstar Omega plate reader containing appropriate filters for the simultaneous detection of PI (544 nm excitation/620 nm emission) and FDA (485 nm excitation/520 nm emission). All fluorescent values were obtained with the plate reader incubator set at 37° C. to ensure efficient esterase conversion of FDA to fluorescein within live schistosomula. The plate reader automatically sets the photo multiplier tube (PMT) gain for each fluorescent dye and this may slightly vary between experiments. Inclusion of appropriate control samples (live and dead schistosomula) compensates for any inter-plate variations in gain settings.
All data were exported into Microsoft Excel for organization and into Minitab (Version 14) for statistical analyses. A One-Way Analysis of Variance (ANOVA) followed by post hoc testing with Fisher's least significant difference (LSD) was used to detect statistical differences between treatments. […].
Numbers of live and dead schistosomula in each well of a microtiter plate were calculated using the following equations: […]

schistosomula = settings: previously published activities; cited from earlier work
[3] = tested on: Schistosoma mansoni schistosomula; assay: dual-fluorescence (PI/FDA) schistosomula viability assay; format: cell-based
[4] = tested on: in vitro cultured, mechanically-transformed schistosomula; settings: 10 μM, 24 hr after treatment; cited from earlier work
[5] = tested on: Haemonchus contortus L3 larvae; assay: Haemonchus contortus FTIR; format: cell-based; settings: worm samples; 3 mg/ml in DMSO added at 1/100; 24 hours at 37° C.
Procedure: 1. Haemonchus contortus L3 larvae were exsheated in 5% sodium hypochlorite for 10 minutes.
2. Following exsheathment the larvae were pelleted by centrifugation at 200×g for 2 minutes, the supernatant was removed and replaced with 1×PBS. This wash step was repeated twice to remove any traces of sodium hypochlorite then resuspended in DMEM containing L-glutamine and pen-strep but lacking in phenol red.
3. The larvae were aliquoted into a 384 well plate at approx. 100 larvae per well.
4. Compounds to be tested (aldicarb, levamisole and ivermectin) were made up at 3 mg/ml in DMSO then added to test wells at 1/100.
5. An identical quantity of DMSO, lacking any compound, was added to control wells.
6. The larvae were cultured for 24 hours at 37° C. following the addition of compounds (see FIG. 11). Wells containing media and compounds, but lacking in larvae, were also set up as controls for background.
For FTIR, two samples were run from each well containing larvae. The first consisted of 10 μl of supernatant taken from the top of the well without any disturbance. The second consisted of 10 μl containing worms and any sediment stirred up from the bottom of the well. A third 10 μl sample of media containing compounds but no larvae was also run for elimination of drug chemistry. Samples were dried at 50° C. for 45 minutes to prevent interference from water before being loaded into the FTIR machine.
Collected spectra were analysed using PyChem software. Two analyses were run for all data: principle components analysis (PCA; which compresses all of the data into smaller, discreet (2) components without there being any assumptions made) and discriminate function analysis (DFA; which takes information provided about class structure to run an algorithm to maximise distances between groups (different drug treatments) and minimise distances within groups (replicates of the same drug treatment)). The circles on the DFA graphs represent mean group centres i.e. treatments that segregate with confidence intervals of 95% (inner circle) and 99% (outer circle).

Molecule: Cc1cc(C2CCCCC2)n(O)c(=O)c1 [ciclopirox]
- schistosomula phenotype by microscopic examination ([1]; 10 μM): shape alterations in schistosomula phenotype
- schistosomula viability by dual-fluorescent viability assay [2]: none showed strong decreases in viability

Molecule: Clc1ccc(COC(Cn2ccnc2)c2ccc(Cl)cc2Cl)c(Cl)c1 (stereo not shown) [miconazole nitrate]
- previously described effect on schistosomula phenotype (schistosomula): shape alteration (‘rounded’ phenotype)
- schistosomula viability by dual-fluorescent viability assay [2]: did not affect schistosomula viability

Molecule: COC(=O)[C@H]1[C@H]2C[C@@H]3c4[nH]c5cc(OC)ccc5c4CCN3C[C@H]2C[C@@H](OC(=O)/C=C/c2cc(OC)c(OC)c(OC)c2)[C@@H]1OC [rescinnamine]
- schistosomula viability by dual-fluorescent viability assay [2]: none showed strong decreases in viability

Molecule: CC(=O)OC[C@H]1O[C@@H]([S-])[C@H](OC(C)=O)[C@@H](OC(C)=O)[C@@H]1OC(C)=O.CCP(CC)CC.[Au+] [auranofin]
- auranofin-mediated mortality compared to vehicle treated (DMSO) or untreated parasites ([3]; 5 μM, 2.5 μM and 1.25 μM, 24 hr): Statistically-significant
- anti-schistosomula effect (viability per drug concentration) ([3]; 24 hours post-treatment): clear and titratable anti-schistosomula effect
- anti-schistosomula LD50 activity ([3]; auranofin titration series, fluorescent-based microtiter plate quantification, 24 hr): 0.82 µM
- PI/FDA staining of schistosomula by epifluorescent microscopy ([1]; 1 μM auranofin): displayed cells that were stained with either PI or FDA throughout the body
- death confirmed by microscopic examination of schistosomula ([1]; 10 μM): 100%
- lethality to schistosomula estimated by light microscopy [4]: 100%

Molecule: c1ccc([C@H]2CN3CCSC3=N2)cc1 [levamisole]
- FTIR separation of treatment from DMSO control, worms [5]: good separation

Molecule: O=C(C1CCCCC1)N1CC(=O)N2CCc3ccccc3C2C1 (stereo not shown) [praziquantel]
- previously described effect on schistosomula phenotype (schistosomula): shape alteration (‘rounded’ phenotype)
- schistosomula phenotype by microscopic examination ([1]; 10 μM): strong rounded phenotype
- schistosomula viability by dual-fluorescent viability assay [2]: did not affect schistosomula viability; also recorded: does not kill in vitro

Molecule: CC(C)=CCC[C@]1(C)C=Cc2c(O)c3c(c(CC=C(C)C)c2O1)O[C@]12C(=C[C@@H]4C[C@H]1C(C)(C)O[C@@]2(C/C=C(/C)C(=O)O)C4=O)C3=O [gambogic acid]
- previously described effect on schistosomula phenotype (schistosomula): induce schistosomula mortality
- schistosomula viability by dual-fluorescent viability assay [2]: induced measurable death

Molecule: CC[C@]1(O)C[C@@H]2CN(CCc3c([nH]c4ccccc34)[C@@](C(=O)OC)(c3cc4c(cc3OC)N(C)[C@H]3[C@@](O)(C(=O)OC)[C@H](OC(C)=O)[C@]5(CC)C=CCN6CC[C@]43[C@@H]65)C2)C1 [vinblastine]
- schistosomula viability by dual-fluorescent viability assay [2]: none showed strong decreases in viability

Molecule: C[C@@H]1[C@H](O)[C@@H](C)/C=C/C=C/C=C/C=C/C=C/C=C/C=C/[C@H](O[C@@H]2O[C@H](C)[C@@H](O)[C@H](N)[C@@H]2O)C[C@@H]2O[C@](O)(C[C@@H](O)C[C@@H](O)[C@H](O)CC[C@@H](O)C[C@@H](O)CC(=O)O[C@H]1C)C[C@H](O)[C@H]2C(=O)O [amphotericin b]
- previously described effect on schistosomula phenotype (schistosomula): induce schistosomula mortality
- schistosomula viability by dual-fluorescent viability assay [2]: induced measurable death

Molecule: CC[C@@H](C(=O)[C@@H](C)[C@@H](O)[C@H](C)[C@@H]1O[C@@H]([C@@H](CC)C(=O)O)CC[C@@H]1C)[C@H]1O[C@]2(C=C[C@@H](O)[C@]3(CC[C@@](C)([C@H]4CC[C@](O)(CC)[C@H](C)O4)O3)O2)[C@H](C)C[C@@H]1C [sodium salinomycin]
- previously described effect on schistosomula phenotype (schistosomula): induce schistosomula mortality
- schistosomula phenotype by microscopic examination ([1]; 10 μM): strongly FDA positive (with some PI positive cells) (FIG. 6C), dark and granular (FIG. 6H), but motile
- schistosomula viability by dual-fluorescent viability assay [2]: fluorescent viability measurements similar to those derived from untreated parasites

Molecule: O=C(Nc1ccc([N+](=O)[O-])cc1Cl)c1cc(Cl)ccc1O [niclosamide]
- previously described effect on schistosomula phenotype (schistosomula): induce schistosomula mortality
- schistosomula viability by dual-fluorescent viability assay [2]: fluorescent viability measurements similar to those derived from untreated parasites

Molecule: CC(C)COCC(CN(Cc1ccccc1)c1ccccc1)N1CCCC1 (stereo not shown) [bepridil]
- schistosomula viability by dual-fluorescent viability assay [2]: none showed strong decreases in viability

Molecule: CN(C)CCCN1c2ccccc2Sc2ccc(Cl)cc21 [chlorpromazine hydrochloride]
- previously described effect on schistosomula phenotype (schistosomula): induce schistosomula over-activity
- schistosomula viability by dual-fluorescent viability assay [2]: did not affect schistosomula viability

Molecule: CNCCC(Oc1ccc(C(F)(F)F)cc1)c1ccccc1 (stereo not shown) [fluoxetine hydrochloride]
- previously described effect on schistosomula phenotype (schistosomula): induce schistosomula over-activity
- schistosomula viability by dual-fluorescent viability assay [2]: did not affect schistosomula viability

Molecule: Nc1[nH]c(=O)ncc1F [flucytosine]
- schistosomula viability by dual-fluorescent viability assay [2]: none showed strong decreases in viability

Molecule: C[C@@](Cc1ccc(O)c(O)c1)(NN)C(=O)O [carbidopa]
- schistosomula viability by dual-fluorescent viability assay [2]: none showed strong decreases in viability

Molecule: CNC(=O)O/N=C/C(C)(C)SC [aldicarb]
- FTIR separation of treatment from DMSO control, worms [5]: good separation

Molecule: ivermectin
- FTIR separation of treatment from DMSO control, worms [5]: good separation
